Patent publication US8829029B2, “Dual modulators of 5HT2A and D3 receptors” (Hoffmann-La Roche Inc., priority 2008, dated 2014)

Assays:
[1] = target: human 5-HT2A serotonin receptor (Homo sapiens (Human), UniProt P28223); test: Radioligand binding ([3H]-ketanserin) to cloned human 5-HT2A receptor expressed in HEK-293 EBNA cells; settings: membranes of transfected HEK-293 EBNA cells, 1.1 nM [3H]-ketanserin, 1 h at RT
Summary of the method: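 Membranes from transiently transfected HEK-293 EBNA cells incubated 1 h at RT with 1.1 nM [3H]-ketanserin (5-HT2A, 15 μg protein/well, Tris/MgCl2/EGTA pH 7.4) or 0.5 nM [3H]-spiperone (D3, 7.5 μg/well, Tris/NaCl/MgCl2/KCl/CaCl2 pH 7.4) plus test compound at 10 μM-0.1 nM. Nonspecific binding with 10 μM spiperone; filtration, Ki via Cheng-Prusoff.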

[2] = target: human D3 dopamine receptor (Homo sapiens (Human), UniProt P35462); test: Radioligand binding ([3H]-spiperone) to cloned human D3 receptor expressed in HEK-293 EBNA cells; settings: membranes of transfected HEK-293 EBNA cells, 0.5 nM [3H]-spiperone, 1 h at RT
Sequence of human D3 dopamine receptor (P35462 whole entry): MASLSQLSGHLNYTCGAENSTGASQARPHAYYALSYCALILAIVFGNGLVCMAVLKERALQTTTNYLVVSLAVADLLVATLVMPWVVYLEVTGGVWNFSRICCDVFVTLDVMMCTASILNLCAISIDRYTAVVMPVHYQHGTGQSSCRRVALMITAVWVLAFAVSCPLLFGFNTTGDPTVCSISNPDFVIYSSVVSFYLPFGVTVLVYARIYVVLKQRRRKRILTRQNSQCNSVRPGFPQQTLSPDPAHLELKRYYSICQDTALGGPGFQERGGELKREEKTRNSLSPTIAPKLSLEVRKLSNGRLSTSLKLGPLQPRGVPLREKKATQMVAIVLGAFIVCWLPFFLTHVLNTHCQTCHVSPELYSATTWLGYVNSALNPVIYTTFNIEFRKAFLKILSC
Summary of the method: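 Membranes from HEK-293 EBNA cells transiently transfected with human D3 receptor, incubated 1 h at RT with ~0.5 nM [3H]-spiperone and ten compound concentrations (10 μM-0.1 nM); nonspecific binding with 10 μM spiperone. Filtered, scintillation counted; IC50 from four-parameter fit, Ki via Cheng-Prusoff using saturation Kd.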

Molecule | Ki [1] | Ki [2]
O=C(CC1CC1)N[C@H]1CC[C@H](CCN2CCC(c3noc4cc(Cl)ccc34)CC2)CC1 [Example 54, N-trans-(4-{2-[4-(6-Chloro-benzo[d]isoxazol-3-yl)-piperidin-1-yl]-ethyl}-cyclohexyl)-2-cyclopropyl-acetamide] | 0.0131 µM | 0.00321 µM
O=C(CO)N[C@H]1CC[C@H](CCN2CCC(c3noc4cc(Cl)ccc34)CC2)CC1 [Example 55, N-trans-(4-{2-[4-(6-Chloro-benzo[d]isoxazol-3-yl)-piperidin-1-yl]-ethyl}-cyclohexyl)-2-hydroxy-acetamide] | 0.015 µM | 0.0168 µM
CS(=O)(=O)CC(=O)N[C@H]1CC[C@H](CCN2CCC(c3noc4cc(Cl)ccc34)CC2)CC1 [Example 56, N-trans-(4-{2-[4-(6-Chloro-benzo[d]isoxazol-3-yl)-piperidin-1-yl]-ethyl}-cyclohexyl)-2-methanesulfonyl-acetamide] | 0.0152 µM | 0.0148 µM
O=C(CC1OCCCO1)N[C@H]1CC[C@H](CCN2CCC(c3noc4cc(Cl)ccc34)CC2)CC1 [Example 57, N-trans-(4-{2-[4-(6-Chloro-benzo[d]isoxazol-3-yl)-piperidin-1-yl]-ethyl}-cyclohexyl)-2-[1,3]dioxan-2-yl-acetamide] | 0.0176 µM | 0.00613 µM
CO[C@H]1CC[C@H](CC(=O)N[C@H]2CC[C@H](CCN3CCC(c4noc5ccc(Cl)cc45)CC3)CC2)CC1 [Example 58, N-trans-(4-{2-[4-(5-Chloro-benzo[d]isoxazol-3-yl)-piperidin-1-yl]-ethyl}-cyclohexyl)-2-(4-methoxy-cyclohexyl)-acetamide] | 0.0247 µM | 0.00838 µM
CS(=O)(=O)N[C@H]1CC[C@H](CCN2CCC(c3noc4ccc(F)cc34)CC2)CC1 [Example 59, N-trans-(4-{2-[4-(5-Fluoro-benzo[d]isoxazol-3-yl)-piperidin-1-yl]-ethyl}-cyclohexyl)-methanesulfonamide] | 0.0275 µM | 0.00798 µM
COCCC(=O)N[C@H]1CC[C@H](CCN2CCC(c3noc4cc(Cl)c(F)cc34)CC2)CC1 [Example 60, N-trans-(4-{2-[4-(6-Chloro-5-fluoro-benzo[d]isoxazol-3-yl)-piperidin-1-yl]-ethyl}-cyclohexyl)-3-methoxy-propionamide] | 0.044 µM | 0.0135 µM
O=C(CC1CCCO1)N[C@H]1CC[C@H](CCN2CCC(c3noc4cc(Cl)c(F)cc34)CC2)CC1 (stereo partly drawn) [Example 61, N-trans-(4-{2-[4-(6-Chloro-5-fluoro-benzo[d]isoxazol-3-yl)-piperidin-1-yl]-ethyl}-cyclohexyl)-2-(tetrahydro-furan-2-yl)-acetamide] | 0.031 µM | 0.0177 µM
COCC(=O)N[C@H]1CC[C@H](CCN2CCC(c3noc4cc(F)c(F)cc34)CC2)CC1 [Example 62, N-trans-(4-{2-[4-(5,6-Difluoro-benzo[d]isoxazol-3-yl)-piperidin-1-yl]-ethyl}-cyclohexyl)-2-methoxy-acetamide] | 0.0105 µM | 0.0327 µM
CO[C@@H]1CC[C@@H](CC(=O)N[C@H]2CC[C@H](CCN3CCC(c4noc5cc(F)c(F)cc45)CC3)CC2)C1 [Example 63, N-trans-(4-{2-[4-(5,6-Difluoro-benzo[d]isoxazol-3-yl)-piperidin-1-yl]-ethyl}-cyclohexyl)-2-((1R,3R)-3-methoxy-cyclopentyl)-acetamide] | 0.0132 µM | 0.02 µM
CO[C@H]1CC[C@H](CC(=O)N[C@H]2CC[C@H](CCN3CCC(c4noc5cc(F)c(F)cc45)CC3)CC2)CC1 [Example 64, N-trans-(4-{2-[4-(5,6-Difluoro-benzo[d]isoxazol-3-yl)-piperidin-1-yl]-ethyl}-cyclohexyl)-2-(4-methoxy-cyclohexyl)-acetamide] | 0.00767 µM | 0.0173 µM
COCCC(=O)N[C@H]1CC[C@H](CCN2CCC(c3noc4cc(F)c(F)cc34)CC2)CC1 [Example 65, N-trans-(4-{2-[4-(5,6-Difluoro-benzo[d]isoxazol-3-yl)-piperidin-1-yl]-ethyl}-cyclohexyl)-3-methoxy-propionamide] | 0.0129 µM | 0.0114 µM
CC(=O)N[C@H]1CC[C@H](CCN2CCC(c3noc4cc(F)c(F)cc34)CC2)CC1 [Example 66, N-trans-(4-{2-[4-(5,6-Difluoro-benzo[d]isoxazol-3-yl)-piperidin-1-yl]-ethyl}-cyclohexyl)-acetamide] | 0.0177 µM | 0.0114 µM
O=C(CO)N[C@H]1CC[C@H](CCN2CCC(c3noc4cc(F)c(F)cc34)CC2)CC1 [Example 67, N-trans-(4-{2-[4-(5,6-Difluoro-benzo[d]isoxazol-3-yl)-piperidin-1-yl]-ethyl}-cyclohexyl)-2-hydroxy-acetamide] | 0.0118 µM | 0.0199 µM
O=C(CCO)N[C@H]1CC[C@H](CCN2CCC(c3noc4cc(F)c(F)cc34)CC2)CC1 [Example 68, N-trans-(4-{2-[4-(5,6-Difluoro-benzo[d]isoxazol-3-yl)-piperidin-1-yl]-ethyl}-cyclohexyl)-3-hydroxy-propionamide] | 0.0248 µM | 0.0117 µM
O=C(C[C@H]1CC[C@H](O)CC1)N[C@H]1CC[C@H](CCN2CCC(c3noc4cc(F)c(F)cc34)CC2)CC1 [Example 69, N-trans-(4-{2-[4-(5,6-Difluoro-benzo[d]isoxazol-3-yl)-piperidin-1-yl]-ethyl}-cyclohexyl)-2-(4-hydroxy-cyclohexyl)-acetamide] | 0.00785 µM | 0.0209 µM
O=C(C[C@@H]1CC[C@@H](O)C1)N[C@H]1CC[C@H](CCN2CCC(c3noc4cc(F)c(F)cc34)CC2)CC1 [Example 70, N-trans-(4-{2-[4-(5,6-Difluoro-benzo[d]isoxazol-3-yl)-piperidin-1-yl]-ethyl}-cyclohexyl)-2-((1R,3R)-3-hydroxy-cyclopentyl)-acetamide] | 0.0114 µM | 0.0198 µM
O=C(N[C@H]1CC[C@H](CCN2CCC(c3noc4cc(F)c(F)cc34)CC2)CC1)C1CCOCC1 [Example 71, Tetrahydro-pyran-4-carboxylic acid trans-(4-{2-[4-(5,6-difluoro-benzo[d]isoxazol-3-yl)-piperidin-1-yl]-ethyl}-cyclohexyl)-amide] | 0.00786 µM | 0.0182 µM
O=C(CC1OCCCO1)N[C@H]1CC[C@H](CCN2CCC(c3noc4cc(F)c(F)cc34)CC2)CC1 [Example 72, N-trans-(4-{2-[4-(5,6-Difluoro-benzo[d]isoxazol-3-yl)-piperidin-1-yl]-ethyl}-cyclohexyl)-2-[1,3]dioxan-2-yl-acetamide] | 0.00939 µM | 0.0135 µM
CC(=O)N[C@H]1CC[C@H](CCN2CCC(c3noc4cc(C)ccc34)CC2)CC1 [Example 73, N-trans-(4-{2-[4-(6-Methyl-benzo[d]isoxazol-3-yl)-piperidin-1-yl]-ethyl}-cyclohexyl)-acetamide] | 0.0168 µM | 0.00928 µM
N-trans-(4-{2-[4-(6-Chloro-benzo[d]isoxazol-3-yl)-piperidin-1-yl]-ethyl}-cyclohexyl)-2-trans (4-methoxy-cyclohexyl)-acetamide [Example 35] | 0.00964 µM | 0.0116 µM
